From patent US20210393810A1, “DIHYDRAZONE COMPOUNDS HAVING HIGH AFFINITY TO A BETA PROTEIN AND TAU PROTEIN, DERIVATIVES THEREOF AND USE THEREOF” (HTA CO., LTD., priority 2019, published 2021)

Legend:
Aβ1-42 aggregates = biological target: T1, Aβ1-42 aggregates (Homo sapiens, UniProt P05067); assay: Competitive binding experiment with [125I]IMPY; conditions: competition with [125I]IMPY, Aβ1-42, 37° C., 3 hours
T1 construct: preparing Aβ1-42 proteins according to the known methods
Protocol: (1) formulating a 0.1% BSA solution with pH=7.4;
(2) preparing a radioligand [125I] IMPY according to the known methods; formulating [125I] IMPY into a solution of 60000-100000 cpm/100 μL for later use;
(3) formulating the compound to be tested into a 10^−5 to 10^−11 mol/L serially diluted ethanol solution;
(4) preparing Aβ1-42 proteins according to the known methods, and diluting it into an aqueous solution of about 30 nM;
(5) soaking a glass fiber filter membrane in PBS solution containing 0.1% polyethyleneimine for 30 minutes;
(6) adding 100 μL of the test compound solutions with different concentrations and 100 μL of [125I] IMPY solution, 700 μL of BSA solution and 100 μL of Aβ1-42 solution into a 12 mm×75 mm borosilicate glass tube, and vortexing;
(7) incubating with shaking in a constant temperature water bath at 37° C. for 3 hours;
(8) collecting the reaction solution by a multi-head cell collector, and rinsing the reaction solution for three times with 10% ethanol solution;
(9) measuring and counting with a gamma counter;
(10) analyzing and processing data using GraphPrad Prism 5.01 to obtain an affinity constant Ki.
Activity between some compounds and Aβ1-42 aggregates was quantitatively determined by the method.

[1] = Biodistribution experiment in normal mice; type: in vivo, mice (ICR, male); conditions: for biodistribution, blood / biodistribution, brain: normal ICR mice; for clearance from the brain / passage through the blood-brain barrier / time at which the brain uptake reaches its peak: normal mice; for time at which the brain uptake reaches its peak: after injection
Protocol: Pharmacokinetic properties in mice, especially the initial brain uptake and brain clearance, were studied through distribution experiments in vivo.
5-10 μCi labelled compounds (100 μL physiological saline solution, containing 10% ethanol) were injected into normal mice (ICR, male, 20-22 g, 5 weeks old) through the tail vein (n=5), and mice were decapitated at 2 minutes, 10 minutes, 30 minutes and 60 minutes after injection, respectively, and organs to be tested were took out by dissection, and the wet weight was measured and radioactive counting was conducted. Data is expressed as the percentage of radioactive dose per gram of organ (% ID/g).

[2] = 2 min after tail vein injection
[3] = 10 min after tail vein injection
[4] = 30 min after tail vein injection
[5] = 60 min after tail vein injection

T1 sequence (P05067 672-713): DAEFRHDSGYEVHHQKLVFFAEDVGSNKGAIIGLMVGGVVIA

Ki (Aβ1-42 aggregates) [nM]	biodistribution, blood [1, 2] [% ID/g]	biodistribution, blood [1, 3] [% ID/g]	biodistribution, blood [1, 4] [% ID/g]	biodistribution, blood [1, 5] [% ID/g]	biodistribution, brain [1, 2] [% ID/g]	biodistribution, brain [1, 3] [% ID/g]	biodistribution, brain [1, 4] [% ID/g]	biodistribution, brain [1, 5] [% ID/g]	time at which the brain uptake reaches its peak [1] [min]	Compound	clearance from the brain [1]	passage through the blood-brain barrier [1]
45.2 ± 18.4										CNc1ccc(/C=N/N=C/c2ccc(NC)cc2)cc1 [Compound 9]		
5.1 ± 1.87										CCN(CC)c1ccc(/C=N/N=C/c2ccc(N(CC)CC)cc2)cc1 [Compound 11]		
1.2 ± 0.25										C(=N\N=C\c1ccc(N2CCCC2)cc1)/c1ccc(N2CCCC2)cc1 [Compound 13]		
1.39 ± 0.25										C(=N\N=C\c1ccc(N2CCCCC2)cc1)/c1ccc(N2CCCCC2)cc1 [Compound 14]		
147 ± 2.06										C(=N\N=C\c1ccc(N2CCOCC2)cc1)/c1ccc(N2CCOCC2)cc1 [Compound 15]		
124 ± 21.7										CN(C)c1ncc(/C=N/N=C/c2cnc(N(C)C)nc2)cn1 [Compound 17]		
35.1 ± 19.3										CNc1ccc(/C=N/N=C/c2ccc(N(C)C)cc2)cc1 [Compound 36]		
277 ± 50.5										CNc1ccc(/C=N/N=C/c2ccc(O)cc2)cc1 [Compound 63]		
5.17 ± 1.4										CN(C)c1ccc(/C=N/N=C/c2ccc(OCCF)cc2)cc1 [Compound 87]		
10.4 ± 6.71										CNc1ccc(/C=N/N=C/c2ccc(OCCF)cc2)cc1 [Compound 88]		
2.45 ± 1.7										CN(C)c1ccc(/C=N/N=C/c2ccc(OCCOCCF)cc2)cc1 [Compound 89]		
8.07 ± 2.89										CNc1ccc(/C=N/N=C/c2ccc(OCCOCCF)cc2)cc1 [Compound 90]		
6.38 ± 0.72										CN(C)c1ccc(/C=N/N=C/c2ccc(OCCOCCOCCF)cc2)cc1 [Compound 91]		
46.4 ± 15.5										CNc1ccc(/C=N/N=C/c2ccc(OCCOCCOCCF)cc2)cc1 [Compound 92]		
10.9 ± 0.97										CN(C)c1ccc(/C=N/N=C/c2ccc(OCCOCCOCCF)nc2)cc1 [Compound 93]		
42.9 ± 20.5										CNc1ccc(/C=N/N=C/c2ccc(OCCOCCOCCF)nc2)cc1 [Compound 94]		
	3.98 ± 0.24	3.36 ± 0.19	3.00 ± 0.13	2.73 ± 0.42	10.66 ± 0.89	11.00 ± 0.80	6.69 ± 0.42	4.56 ± 0.58	2	CN(C)c1ccc(/C=N/N=C/c2ccc(OCC[18F])cc2)cc1 [[18F]87]	cleared faster in the brain of normal mice	can effectively pass through the blood-brain barrier
	3.32 ± 0.26	3.57 ± 0.34	3.31 ± 0.13	2.90 ± 0.32	9.21 ± 0.63	8.24 ± 0.36	4.81 ± 0.27	3.02 ± 0.15	2	CNc1ccc(/C=N/N=C/c2ccc(OCC[18F])cc2)cc1 [[18F]88]	cleared faster in the brain of normal mice	can effectively pass through the blood-brain barrier
	2.95 ± 0.31	3.24 ± 1.25	4.78 ± 0.24	5.42 ± 0.65	10.88 ± 0.75	10.62 ± 0.58	6.06 ± 0.38	4.55 ± 0.48	2	CN(C)c1ccc(/C=N/N=C/c2ccc(OCCOCC[18F])cc2)cc1 [[18F]89]	cleared faster in the brain of normal mice	can effectively pass through the blood-brain barrier
	3.72 ± 0.44	3.85 ± 0.26	4.90 ± 0.61	5.44 ± 0.40	11.05 ± 1.70	7.81 ± 0.60	4.92 ± 0.41	3.97 ± 0.28	2	CNc1ccc(/C=N/N=C/c2ccc(OCCOCC[18F])cc2)cc1 [[18F]90]	cleared faster in the brain of normal mice	can effectively pass through the blood-brain barrier
	3.08 ± 0.45	2.86 ± 0.28	3.83 ± 0.27	3.66 ± 0.40	10.39 ± 1.07	7.56 ± 0.91	2.93 ± 0.13	1.60 ± 0.10	2	CN(C)c1ccc(/C=N/N=C/c2ccc(OCCOCCOCC[18F])cc2)cc1 [[18F]91]	cleared faster in the brain of normal mice	can effectively pass through the blood-brain barrier
	3.81 ± 0.35	3.06 ± 0.49	3.26 ± 0.17	3.05 ± 0.45	7.84 ± 0.50	3.94 ± 0.13	1.88 ± 0.03	1.17 ± 0.07	2	CNc1ccc(/C=N/N=C/c2ccc(OCCOCCOCC[18F])cc2)cc1 [[18F]92]	cleared faster in the brain of normal mice	can effectively pass through the blood-brain barrier
	3.53 ± 0.24	3.16 ± 1.00	3.64 ± 0.29	2.46 ± 0.33	11.39 ± 1.08	5.55 ± 0.37	2.41 ± 0.22	1.44 ± 0.15	2	CN(C)c1ccc(/C=N/N=C/c2ccc(OCCOCCOCC[18F])nc2)cc1 [[18F]93]	cleared faster in the brain of normal mice	can effectively pass through the blood-brain barrier
	4.30 ± 0.09	3.40 ± 0.28	3.66 ± 0.18	2.59 ± 0.15	8.59 ± 0.57	4.09 ± 0.38	2.40 ± 0.15	1.36 ± 0.13	2	CNc1ccc(/C=N/N=C/c2ccc(OCCOCCOCC[18F])nc2)cc1 [[18F]94]	cleared faster in the brain of normal mice	can effectively pass through the blood-brain barrier
